Assay results reported in publication PMC6161897, “The novel NADPH oxidase 4 selective inhibitor GLX7013114 counteracts human islet cell death in vitro” (PLoS ONE, 2018).

Tests used:
all Nox enzymes = conditions: cited from earlier work
caspase 3 = assay: Cleaved caspase 3 immunofluorescence in human islets; assay type: cell-based; conditions: palmitate + high glucose 24h, same inhibitor concentrations as Fig 3
XO = conditions: cited from earlier work
Nox2 = conditions: cited from earlier work
human islet = conditions: cited from earlier work
[1] = cited from earlier work
human islet cells [2] = assay: Human islet cell viability (PI/bisbenzimide ratio); assay type: cell-based; conditions: for human islet cell death, cytokines: IL-1β + IFN-γ 20 ng/ml each; for human islet cell death, cytokines / human islet cell death, high glucose + palmitate: 48h, ML171 2 μM, Phox-I2 2 μM, GLX7013114 1 μM; for human islet cell death, high glucose + palmitate: palmitate 1.5 mM + 20 mM glucose
Protocol: […] Cell viability was measured by staining cells with propidium iodide (20 μg/ml) and bisbenzimide (5 μg/ml) for 20 min at 37°C. The medium was replaced with PBS and the red and blue fluorescence was detected using a Nikon Eclipse fluorescence TE2000-U microscope (Nikon Instruments, Amsterdam, the Netherlands). The ratio of red to blue was taken as a relative measure of cell death (necrosis and late apoptosis) and was quantified using the Image J software (National Institutes of Health).

EndoC-βH1 cells = assay: EndoC-βH1 cell viability (PI, flow cytometry); assay type: cell-based, human; conditions: inhibitor 0.2, 0.5 or 1.0 μM; for cell death rates in EndoC-βH1 cells exposed to cytokines: 2-day incubation; for cell death rates in EndoC-βH1 cells exposed to high glucose + palmitate: 24h incubation
Protocol: […] Cells were then vital stained with 10 μg/ml propidium iodide (PI) for 10 min at 37°C. Free-floating cells and cells attached to the culture dish were washed separately with PBS, pooled and examined by flow cytometry using a FACSCalibur (BD Biosciences, Franklin Lakes, NJ, USA). In each experimental group 10000 cells were examined and gated by PI intensity and FSC signal. The percentage of dead cells was analyzed using […] software (BD Biosciences).

human islet cells [3] = assay: ROS production in human islets (DCF fluorescence); assay type: cell-based; conditions: palmitate 1.5 mM + 20 mM glucose 24h, inhibitor during last 3h: DPI 0.2 μM, Dapsone 10 μM, GLX351322 10 μM, GLX481372 6 μM
Nox4 = target: T1, Nox4 (Homo sapiens, UniProt Q9NPH5); conditions: cited from earlier work
T1 construct: host or cells: HEK 293 (CJ, constitutive) and T-REx-293 (tetracycline-inducible)
T1 sequence (Q9NPH5 1-578): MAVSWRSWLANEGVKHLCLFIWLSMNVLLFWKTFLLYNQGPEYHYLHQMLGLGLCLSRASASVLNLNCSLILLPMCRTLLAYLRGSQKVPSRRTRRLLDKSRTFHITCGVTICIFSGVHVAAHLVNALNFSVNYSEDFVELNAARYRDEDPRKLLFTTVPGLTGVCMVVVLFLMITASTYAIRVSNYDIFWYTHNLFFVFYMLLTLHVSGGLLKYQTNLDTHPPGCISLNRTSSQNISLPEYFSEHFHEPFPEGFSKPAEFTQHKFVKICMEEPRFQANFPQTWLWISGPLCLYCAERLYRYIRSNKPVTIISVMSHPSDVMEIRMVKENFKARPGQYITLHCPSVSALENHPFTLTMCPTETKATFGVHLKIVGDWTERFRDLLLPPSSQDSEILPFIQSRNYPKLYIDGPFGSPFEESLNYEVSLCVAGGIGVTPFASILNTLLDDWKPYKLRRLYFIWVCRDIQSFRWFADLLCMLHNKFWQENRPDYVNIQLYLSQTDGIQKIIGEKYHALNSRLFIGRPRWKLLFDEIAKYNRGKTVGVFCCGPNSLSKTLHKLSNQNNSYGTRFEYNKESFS
T1 sequence (P13498 2-195 partner limits assumed): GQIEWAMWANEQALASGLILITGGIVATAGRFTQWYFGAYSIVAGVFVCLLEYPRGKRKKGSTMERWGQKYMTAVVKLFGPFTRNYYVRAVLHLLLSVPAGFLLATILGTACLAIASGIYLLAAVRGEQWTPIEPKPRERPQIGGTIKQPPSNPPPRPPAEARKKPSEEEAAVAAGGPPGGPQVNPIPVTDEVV

DUOX1 = test system: DUOX1; parameters: method as in PMID 24053146; conditions: cited from earlier work

Compound	activation of caspase 3 in human islets (caspase 3)	XO inhibition (XO)	IC50 (Nox2) [µM]	human islet cell death, cytokines (human islet cells [2])	human islet cell death, high glucose + palmitate (human islet cells [2])	cell death rates in EndoC-βH1 cells exposed to cytokines (EndoC-βH1 cells)	cell death rates in EndoC-βH1 cells exposed to high glucose + palmitate (EndoC-βH1 cells)	further results
c1ccc2c(c1)[I+]c1ccccc1-2 [DPI, diphenyleneiodoniumchloride]	reduced activation of caspase 3	Yes	[…]					IC50 values for all Nox enzymes (all Nox enzymes): nM range
CCOC(=O)c1c(NC(=O)CN2CCN(C(=O)c3ccco3)CC2)sc2c1CCC2 [GLX351322]	reduced activation of caspase 3	Inactive	40					high glucose-induced inhibition of human islet insulin release and survival (human islet): protected against high glucose-induced inhibition of human islet insulin release and survival; high-fat diet-induced glucose intolerance [1]: amelioration of high-fat diet-induced glucose intolerance
CC(=O)c1ccc2c(c1)Nc1ccccc1S2 [ML171]			[…]	failed to reduce human islet cell death	failed to reduce human islet cell death	failed to affect cell death rates	failed to affect cell death rates	IC50 (XO; read-out: XO inhibition): 5.5 µM
O=[N+]([O-])c1cccc(C2Nc3ccc([N+](=O)[O-])cc3C3C=CCC32)c1 (stereo not shown) [Phox-I2]			1	failed to protect	partially protected	failed to affect cell death rates	failed to affect cell death rates	
Nc1ccc(S(=O)(=O)c2ccc(N)cc2)cc1 [dapsone]	reduced activation of caspase 3							human islet cell viability (PI and Bisbenzimide ratio) (human islet cells [2]; palmitate + high glucose 24h, inhibitor throughout: DPI 0.2 μM, Dapsone 10 μM, GLX351322 10 μM, GLX481372 6 μM): improved viability; human islet ROS production (DCF/DAPI ratio) (human islet cells [3]): reduced human islet ROS production; inhibition of expression/activity of Nox4 (Nox4): μM concentrations; inhibition of expression/activity of DUOX1 (DUOX1): μM concentrations
